Non-standard residues stand in square brackets, D forms with d. Residues, ends and D or L forms follow the SMILES beside them. *: point of attachment. pGlu = O=C1CC[CH](C(=O)O)N1; Boc = CC(C)(C)OC(=O)*; OBn = c1ccc(CO*)cc1; Bn = c1ccc(C*)cc1
Compound | melting point
COC(=O)C1CC(c2ccncc2)CCC1=O (centres undefined) | 82 to 83 °C
Cc1cc(-n2ccnc2)c2cccc(OCc3c(Cl)ccc(S(=O)(=O)N4CCC[C@H]4C(=O)N4CCN(c5ccccn5)CC4)c3Cl)c2n1 | 108 °C
CNC(=O)c1ccc(Nc2nccc(-c3cccnc3)n2)cc1 | 254 to 257 °C
Cc1c(-c2ncc(Cl)cc2F)nn(C)c1C#N | 144 to 146 °C
O=C(O)C1=CCN2C=CC=CC2=C1 | 258 to 262 °C
Cc1cc(Nc2ccnc(Nc3ccc(S(=O)(=O)N(C)C4CCCN(C)C4)cc3)n2)ccc1F (centres undefined) | 188 °C
CN(C(=O)Nc1nc(OCC(F)(F)F)cc(OCC(F)(F)F)n1)c1ccc(CC(F)(F)F)s1 | 99 to 101 °C
O=C(c1ccccc1)c1ccc(OCCCCCCCCBr)cc1 | 59 to 61 °C
c1cc2ncc3c(n2n1)N(C1CCCC1)CC3 | 181 °C
O=C(OC1CCCC1)c1ncn2c1[C@@H]1CCCN1C(=O)c1c(Cl)cccc1-2 | 210 to 212 °C
C1CNCCNCCNCCNCCN1 | 92 to 103 °C
N#CSc1nccnc1Cl | 70 to 71 °C
CC(NC(=O)C(Cc1ccc(OCc2ccccc2)cc1)NC(=O)OC(C)(C)C)C(=O)NCC(=O)OCc1ccccc1 (stereo not drawn) (Boc-Tyr(Bn)-Ala-Gly-OBn; configuration not given here) | 145 to 147 °C
NC(=O)CC(NC(=O)C(CO)NC(=O)CNC(=O)CNC(=O)C1CCC(=O)N1)C(=O)NC(Cc1ccccc1)C(N)=O (centres undefined) ([pGlu]GGSNF-NH2; configuration not given here) | 218 to 221 °C
CC(C)(C)Nc1cc(Cl)nc(Cl)n1 | 192 to 193 °C
COc1cccc(C2OC(=O)CC2C(=O)O)c1OC (centres undefined) | 129 to 130 °C
COC(=O)[C@H](Cc1ccc(NC(=S)NCCN2CCOCC2)cc1)NC(=O)[C@@H]1CCCN1S(=O)(=O)c1ccc(C)cc1 | 158 to 168 °C
CNC(C)=C(C(=O)OC)C(=O)c1ccccc1 | 75 to 77 °C
CC(C)CC(=O)c1cc2ccncc2[nH]1 | 215 to 218 °C
COc1cc2ccccc2cc1N(C)C(=O)N1CCN(c2cc(Cl)cc(Cl)c2)CC1 | 165 to 167 °C
O=c1oc(-c2ccccc2)cc(O)c1C(CCCSc1ccccc1)Sc1ccccc1 (centres undefined) | 75 to 77 °C
Cc1cc(C)c2[nH]c(C(=O)NC(N)=S)cc2c1 | 220 to 223 °C
CC1(C)CC(=NO)c2cc(F)ccc2O1 | 108 to 110 °C
Oc1cc(/C=C/c2ccccc2)cc(O)c1O | 172 °C
COc1cc(Nc2ncnc3cc(OCC4CCCCO4)c(OC)cc23)c(OC)cc1Cl (centres undefined) | 203 to 209 °C
CC1(C(=O)Nc2cnc(Cl)c(Cl)c2)CC1 | 115 to 117 °C
CNC(=O)Oc1ccc2c(c1)c1c(n2C)CC(CO)C1 (centres undefined) | 137 to 138 °C
CC(C)(C)OC(=O)N1CCN(Cc2ccccc2)C(=S)C1 | 126 to 129 °C
Cc1nc(O)c2c(n1)CCN(c1nc(C)nc(O)c1[N+](=O)[O-])CC2 | > 200 °C

Other lines, results leading:

melting point | Compound
115 °C | CCOC(=O)C1=C(N2CCCC2)N=C(C)C(C(=O)OCC)C1c1ccccc1C#N (centres undefined)
158 to 160 °C | N#CC(Cc1ccccc1)=NNc1ccc([N+](=O)[O-])cc1
168 to 170 °C | CN(C)c1ccc(CCc2nc3sc4c(n3c2CO)CCCCC4)cc1
152 to 153 °C | Cc1cc(C(=O)N2Cc3cccn3Cc3ccccc32)ccc1I
175 to 176 °C | CCCCOc1nc(N)c2[nH]c(=O)n(CCCCN(CC(C)(C)CN(C)C)S(=O)(=O)c3cccc(CC(=O)O)c3)c2n1
49 to 50 °C | CCCc1cc(Cl)c2occ(C)c2c1O
91.5 to 94 °C | O=C(O)CCCOc1ccc([C@H]2c3ccc(O)cc3OC[C@H]2c2ccccc2)cc1 (racemic)
205 to 206 °C | NC1=C(c2cccc(C(F)(F)F)c2)C(=O)C(c2ccccc2)C1 (centres undefined)
76 to 77 °C | CCOc1ccc2[nH]c(C)cc2c1
78 to 81 °C | CCCN(c1nc(-c2ccc(Cl)cc2Cl)c(C)s1)C(c1ccccc1)C1CC1 (centres undefined)
254 to 256 °C | O=C(O)CN1C(=O)C(=Cc2ccc(Cc3cccnc3)s2)SC1=S
201 to 205 °C | COc1ccc(S(=O)(=O)Nc2c(Cl)cccc2Cl)c2c1[nH]c1ccccc12
138 to 140 °C | COc1cc(N)c(Cl)cc1C(=O)NCC1CCN(CCCCCCCC(=O)c2ccccc2)CC1
36 to 37 °C | COc1cccc(-c2cc(-c3ccoc3)on2)c1
144 to 145 °C | CCOC(=O)c1csc2cc(Oc3ccnc(N)n3)ccc12
192 to 193 °C | COc1ccc(C(=O)N[C@H](Cc2ccc(C(F)(F)F)cc2)[C@@H](O)c2ccc(F)cc2)cc1 (racemic)
124 to 125 °C | Fc1cccc(Cn2cnnc2S)c1
171 to 172 °C | CC(=O)c1ccc(Nc2nc(N)c(C(=O)c3sccc3C)s2)cc1
139 °C | CC(C)c1ccc(S(=O)(=O)n2c(Cc3ccc(C(=O)O)c(O)c3)cc3cc(Cl)ccc32)cc1
302 to 303 °C | O=C1c2cc([N+](=O)[O-])ccc2-n2c1nc1ccccc1c2=O

melting point | Compound
111 to 115 °C | Cc1cc(N)ccc1NC(=O)c1ccc(N)cc1
182 to 183 °C | COC(=O)C1=C(c2cc(OC)c(OC)c(OC)c2)c2ccccc2S(=O)(=O)N1Cc1ccc2c(c1)OCO2
55 to 57 °C | CCOC(=O)[C@@H]1CCCN1C(=O)C1=Cc2ccccc2CC1
42 to 43 °C | CCOC(=O)c1noc(C2CC2)c1C(=O)c1ccc(Br)cc1CSC
196 to 198 °C | CC1(C)N=C(n2nc(O)ccc2=O)c2cc(Br)ccc2O1
185 to 187 °C | CN1CCN(c2ccc(S(=O)(=O)Oc3c(Cl)cc(Cl)cc3Cl)cc2)C1=O
94 to 95 °C | Cc1oc(/C=C/c2ccccc2)nc1COc1ccc(CCCn2ccnc2)cc1
218 °C | CN(C(=O)c1cc(=O)n(C)c2ccc(C(O)(c3ccc(Cl)cc3)c3cncn3C)cc12)c1cccc(Cl)c1 (centres undefined)
108 to 110 °C | NCCC(=O)Nc1ccc(Nc2ccccc2)cc1
161 to 165 °C | Cc1ccc(C2COc3cc(O)ccc3C2c2ccc(OCCN3CCCC3)cc2)cc1 (centres undefined)
137 to 138 °C | O=C(O)c1cc(OCc2ccccc2)c(C(=O)c2ccc(Cl)cc2)c([N+](=O)[O-])c1
170 to 173 °C | COc1cccc(S(=O)(=O)c2ccc3[nH]c(C)c(CCNC(=O)OC(C)(C)C)c3c2)c1
177 to 178 °C | O=C(O)Cn1cc(Cc2nc3c(F)c(F)cc(F)c3s2)c2ccccc21
> 260 °C | CCCCCCc1ccc(-c2ccc(-c3ncc(C(N)=O)cn3)cc2)cc1
121 to 122 °C | COc1ccc2c(-c3cc(F)ccc3F)noc2c1
> 300 °C | O=c1ccc2c(-c3cccc([N+](=O)[O-])c3)nccc2[nH]1
191 to 193 °C | O=c1c2ccc(OCC3CO3)cc2oc2ccc3cccc(O)c3c12 (centres undefined)
139 to 141 °C | Cn1nc(-c2c(F)cccc2Cl)nc1-c1ccc(Oc2ccc(C(F)(F)F)cn2)cc1Cl
98 to 100 °C | CCOC(=O)c1ccccc1SN(C(=O)NC(=O)c1ccccc1Cl)c1ccc(Oc2ccc(C(F)(F)F)cc2Cl)cc1
82 to 84 °C | CCOC(=O)Cc1ccc2c(c1)sc1cccc(Cl)c12

— a melting point compilation (Tetko et al.; mined from patent text by program, amines drawn as free bases though some values may be those of a salt)
